Test results as given in patent publication US7109193B2, “Tricyclic diazepines tocolytic oxytocin receptor antagonists” (Wyeth, priority 2001, dated 2006).

Molecular target: T1, human vasopressin V2 receptor subtype (Homo sapiens, UniProt P30518)
T1 construct: host or cells: CHO cells (pZeoSV vector)
Assay: Vasopressin binding in Chinese Hamster Ovary cell membranes expressing human vasopressin V2 subtype receptors
Settings: 100 nM, CHO cell membranes, [3H]arginine vasopressin, values without parentheses
In short: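 Radioligand displacement on membranes from CHO cells stably expressing human V2 receptor, 25 to 50 μg protein/well, in 50 mM Tris-HCl pH 7.4 with MgCl2, BSA and protease inhibitors. [^3H]arginine vasopressin (8 nM working solution) incubated 60 min at room temperature; bound label measured by filtration and scintillation counting.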

T1 sequence (P30518 whole entry): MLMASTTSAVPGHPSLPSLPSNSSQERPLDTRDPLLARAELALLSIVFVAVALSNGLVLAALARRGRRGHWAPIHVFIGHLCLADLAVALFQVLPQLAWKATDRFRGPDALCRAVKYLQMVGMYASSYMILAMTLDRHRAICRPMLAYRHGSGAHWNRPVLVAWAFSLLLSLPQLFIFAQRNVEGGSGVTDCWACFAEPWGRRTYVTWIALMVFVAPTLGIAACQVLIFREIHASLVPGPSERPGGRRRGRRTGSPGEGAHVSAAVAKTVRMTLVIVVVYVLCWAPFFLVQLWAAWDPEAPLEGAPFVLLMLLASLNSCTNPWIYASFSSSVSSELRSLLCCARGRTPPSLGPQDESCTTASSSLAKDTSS

inhibition at 0.1 µM	SMILES
17%	COc1cccc(-c2cc(OC)c(C(=O)N3Cc4ccc(C(=O)N[C@@H](CCCCNC(=O)OC(C)(C)C)C(N)=O)n4Cc4ccccc43)cc2Cl)c1 [Example 302, tert-Butyl (5S)-6-amino-5-[({10-[(6-chloro-3,3′-dimethoxy[1,1′-biphenyl]-4-yl)carbonyl]-10,11-dihydro-5H-pyrrolo[2,1-c][1,4]benzodiazepin-3-yl}carbonyl)amino]-6-oxohexylcarbamate]
14%	COc1ccccc1-c1ccc(C(=O)N2Cc3ccc(C(=O)NCCCN(C)C)n3Cc3ccccc32)cc1 [Example 75, N-[3-(Dimethylamino)propyl]-10-[(2′-methoxy[1,1′-biphenyl]-4-yl)carbonyl]-10,11-dihydro-5H-pyrrolo[2,1-c][1,4]benzodiazepine-3-carboxamide]
13%	CN1CCCN(C(=O)c2ccc3n2Cc2ccccc2N(C(=O)c2ccc(-c4cccc5ccccc45)cc2Cl)C3)CC1 [Example 71, {10-[2-Chloro-4-(1-naphthyl)benzoyl]-10,11-dihydro-5H-pyrrolo[2,1-c][1,4]benzodiazepin-3-yl}(4-methyl-1,4-diazepan-1-yl)methanone]
9%	Cc1ccccc1-c1ccc(C(=O)N2Cc3ccc(C(=O)N4CCN(CCCN(C)C)CC4)n3Cc3ccccc32)cc1 [Example 249, {4-[3-(Dimethylamino)propyl]-1-piperazinyl}{10-[(2′-methyl[1,1′-biphenyl]-4-yl)carbonyl]-10,11-dihydro-5H-pyrrolo[2,1-c][1,4]benzodiazepin-3-yl}methanone]
24%	COc1cc(-c2ccccc2C)c(Cl)cc1C(=O)N1Cc2ccc(C(=O)N3CCN(CCCN(C)C)CC3)n2Cc2ccccc21 [Example 251, {10-[(6-Chloro-3-methoxy-2′-methyl[1,1′-biphenyl]-4-yl)carbonyl]-10,11-dihydro-5H-pyrrolo[2,1-c][1,4]benzodiazepin-3-yl}{4-[3-(dimethylamino)propyl]-1-piperazinyl}methanone]
29%	COc1cc(C(=O)N2Cc3ccc(C(=O)N4CCCN(C)CC4)n3Cc3ccccc32)ccc1-c1cccc2ccccc12 [Example 68, {10-[3-Methoxy-4-(1-naphthyl)benzoyl]-10,11-dihydro-5H-pyrrolo[2,1-c][1,4]benzodiazepin-3-yl}(4-methyl-1,4-diazepan-1-yl)methanone]
13%	COc1cc(C(=O)N2Cc3ccc(C(=O)N4CCN(C(C)C)CC4)n3Cc3ccccc32)ccc1-n1c(C)ccc1C [Example 319, {10-[4-(2,5-Dimethyl-1H-pyrrol-1-yl)-3-methoxybenzoyl]-10,11-dihydro-5H-pyrrolo[2,1-c][1,4]benzodiazepin-3-yl}(4-isopropyl-1-piperazinyl)methanone]
6%	Cc1ccccc1-c1ccc(C(=O)N2Cc3ccc(C(=O)N4CCCN(C)CC4)n3Cc3ccccc32)cc1 [Example 65, {10-[(2′-Methyl[1,1′-biphenyl]-4-yl)carbonyl]-10,11-dihydro-5H-pyrrolo[2,1-c][1,4]benzodiazepin-3-yl}(4-methyl-1,4-diazepan-1-yl)methanone]
14%	COc1cccc(-c2ccc(C(=O)N3Cc4ccc(C(=O)NCCCN(C)C)n4Cc4ccccc43)cc2C)c1 [Example 74, N-[3-(Dimethylamino)propyl]-10-[(3′-methoxy-2-methyl[1,1′-biphenyl]-4-yl)carbonyl]-10,11-dihydro-5H-pyrrolo[2,1-c][1,4]benzodiazepine-3-carboxamide]
14%	COc1cc(-c2ccccc2C)c(Cl)cc1C(=O)N1Cc2ccc(C(=O)NCCCN(C)C)n2Cc2ccccc21 [Example 78, 10-[(6-Chloro-3-methoxy-2′-methyl[1,1′-biphenyl]-4-yl)carbonyl]-N-[3-(dimethylamino)propyl]-10,11-dihydro-5H-pyrrolo[2,1-c][1,4]benzodiazepine-3-carboxamide]
32%	COc1ccccc1-c1ccc(C(=O)N2Cc3ccc(C(=O)N[C@@H](Cc4c[nH]cn4)C(N)=O)n3Cc3ccccc32)cc1C [Example 288, N-[(1S)-2-Amino-1-(1H-imidazol-4-ylmethyl)-2-oxoethyl]-10-[(2′-methoxy-2-methyl[1,1′-biphenyl]4-yl)carbonyl]-10,11-dihydro-5H-pyrrolo[2,1-c][1,4]benzodiazepine-3-carboxamide]
7%	COc1cc(C(=O)N2Cc3ccc(C(=O)N(C)CCN(C)C)n3Cc3ccccc32)ccc1-n1c(C)ccc1C [Example 309, N-[2-(Dimethylamino)ethyl]-10-[4-(2,5-dimethyl-1H-pyrrol-1-yl)-3-methoxybenzoyl]-N-methyl-10,11-dihydro-5H-pyrrolo[2,1-c][1,4]benzodiazepine-3-carboxamide]
27%	COc1ccccc1-c1ccc(C(=O)N2Cc3ccc(C(=O)N4CCN(C)CC4)n3Cc3ccccc32)cc1OC [Example 56, {10-[(2,2′-Dimethoxy[1,1′-biphenyl]-4-yl)carbonyl]-10,11-dihydro-5H-pyrrolo[2,1-c][1,4]benzodiazepin-3-yl}(4-methyl-1-piperazinyl)methanone]
28%	COc1cc(C(=O)N2Cc3ccc(C(=O)NCCCN(C)C)n3Cc3ccccc32)ccc1-c1ccccc1C [Example 77, N-[3-(Dimethylamino)propyl]-10-[(2-methoxy-2′-methyl[1,1′-biphenyl]-4-yl)carbonyl]-10,11-dihydro-5H-pyrrolo[2,1-c][1,4]benzodiazepine-3-carboxamide]
22%	COc1ccccc1-c1ccc(C(=O)N2Cc3ccc(C(=O)N4CCCN(C)CC4)n3Cc3ccccc32)cc1OC [Example 69, {10-[(2,2′-Dimethoxy[1,1′-biphenyl]-4-yl)carbonyl]-10,11-dihydro-5H-pyrrolo[2,1-c][1,4]benzodiazepin-3-yl}(4-methyl-1,4-diazepan-1-yl)methanone]
-4%	COc1ccccc1-c1ccc(C(=O)N2Cc3ccc(C(=O)N4CCN(CCCN(C)C)CC4)n3Cc3ccccc32)cc1OC [Example 254, {10-[(2,2′-Dimethoxy[1,1′-biphenyl]-4-yl)carbonyl]-10,11-dihydro-5H-pyrrolo[2,1-c][1,4]benzodiazepin-3-yl}{4-[3-(dimethylamino)propyl]-1-piperazinyl}methanone]
1%	COc1cc(C(=O)N2Cc3ccc(C(=O)NCCCN(C)C)n3Cc3ccccc32)ccc1-n1c(C)ccc1C [Example 308, N-[3-(Dimethylamino)propyl]-10-[4-(2,5-dimethyl-1H-pyrrol-1-yl)-3-methoxybenzoyl]-10,11-dihydro-5H-pyrrolo[2,1-c][1,4]benzodiazepine-3-carboxamide]
21%	COc1cccc(-c2cc(OC)c(C(=O)N3Cc4ccc(C(=O)N5CCN(CCCN(C)C)CC5)n4Cc4ccccc43)cc2Cl)c1 [Example 252, {10-[(6-Chloro-3,3′-dimethoxy[1,1′-biphenyl]-4-yl)carbonyl]-10,11-dihydro-5H-pyrrolo[2,1-c][1,4]benzodiazepin-3-yl}{4-[3-(dimethylamino)propyl]-1-piperazinyl}methanone]
17%	COc1cccc(-c2ccc(C(=O)N3Cc4ccc(C(=O)N5CCN(C)CC5)n4Cc4ccccc43)cc2C)c1 [Example 51, {10-[(3′-Methoxy-2-methyl[1,1′-biphenyl]-4-yl)carbonyl]-10,11-dihydro-5H-pyrrolo[2,1-c][1,4]benzodiazepin-3-yl}(4-methyl-1-piperazinyl)methanone]
27%	COc1ccccc1-c1ccc(C(=O)N2Cc3ccc(C(=O)N[C@@H](Cc4c[nH]cn4)C(N)=O)n3Cc3ccccc32)cc1OC [Example 286, N-[(1S)-2-Amino-1-(1H-imidazol-4-ylmethyl)-2-oxoethyl]-10-[(2,2′-dimethoxy[1,1′-biphenyl]-4-yl)carbonyl]-10,11-dihydro-5H-pyrrolo[2,1-c][1,4]benzodiazepine-3-carboxamide]
84%	COc1cc(C(=O)N2Cc3cccn3Cc3ccccc32)ccc1-c1ccccc1C(F)(F)F [Example 19D, (10,11-Dihydro-5H-pyrrolo[2,1-c][1,4]benzodiazepin-10-yl)-(2-methoxy-2′-trifluoromethyl-[1,1′-biphenyl]-4-yl)-methanone]

SMILES	inhibition at 0.1 µM
COc1ccccc1-c1ccc(C(=O)N2Cc3ccc(C(=O)N[C@H]4CN5CCC4CC5)n3Cc3ccccc32)cc1C [Example 298, N-[(3R)-1-Azabicyclo[2.2.2]oct-3-yl]-10-[(2′-methoxy-2-methyl[1,1′-biphenyl]-4-yl)carbonyl]-10,11-dihydro-5H-pyrrolo[2,1-c][1,4]benzodiazepine-3-carboxamide]	29%
COc1ccccc1-c1ccc(C(=O)N2Cc3ccc(C(=O)N[C@H]4CN5CCC4CC5)n3Cc3ccccc32)cc1OC [Example 299, N-[(3R)-1-Azabicyclo[2.2.2]oct-3-yl]-10-[(2,2′-dimethoxy[1,1′-biphenyl]-4-yl)carbonyl]-10,11-dihydro-5H-pyrrolo[2,1-c][1,4]benzodiazepine-3-carboxamide]	22%
Cc1cc(C(=O)N2Cc3ccc(C(=O)N[C@H]4CN5CCC4CC5)n3Cc3ccccc32)ccc1-c1ccccc1C(F)(F)F [Example 301, N-[(3R)-1-Azabicyclo[2.2.2]oct-3-yl]-10-{[2-methyl-2′-(trifluoromethyl)[1,1′-biphenyl]-4-yl]carbonyl}-10,11-dihydro-5H-pyrrolo[2,1-c][1,4]benzodiazepine-3-carboxamide]	9%
COc1cc(-c2ccccc2C)c(Cl)cc1C(=O)N1Cc2ccc(C(=O)N[C@@H]3CN4CCC3CC4)n2Cc2ccccc21 [Example 297, N-[(3S)-1-Azabicyclo[2.2.2]oct-3-yl]-10-[(6-chloro-3-methoxy-2′-methyl-[1,1′-biphenyl]-4-yl)carbonyl]-10,11-dihydro-5H-pyrrolo[2,1-c][1,4]benzodiazepine-3-carboxamide]	13%
